Earlier results, collected in publication PMC12390126, “Human Skin Permeation of Ethoxy- and Propoxypropanol Commonly Found in Water-Based Products” (Toxics, 2025).
Read-outs that look alike come from different tables or passages of the source.

Key:
[1] = frozen full thickness skin, 32 °C, 4 h, cited from earlier work; for J ± SD / Kp ± SD: 56.1-61.7 mg/cm^2
[2] = dermatomed 0.8 mm, 32 °C, 24 h, cited from earlier work; for J ± SD / Kp ± SD: 109.6 (PGME) or 100.0 (PGBE) mg/cm^2
[3] = design: method as in PMID 15251185; conditions: frozen full thickness skin (1 mm), 32 °C, 57.8 mg/cm^2, 8 h; cited from earlier work

Compound | J ± SD [1] [µg/cm^2/h] | Kp ± SD [1] | Tlag ± SD [1] [h] | J ± SD ([2]; fresh skin) [µg/cm^2/h] | Kp ± SD ([2]; fresh skin) | Tlag ± SD ([2]; fresh skin) [h] | J ± SD ([2]; frozen skin) [µg/cm^2/h] | Kp ± SD ([2]; frozen skin) | Tlag ± SD ([2]; frozen skin) [h] | J ± SD [3] [µg/cm^2/h] | Kp ± SD [3] | Tlag ± SD [3] [h]
COCC(C)OC(C)=O (stereo not drawn) [PGMEac, propylene glycol methyl ether acetate] | 59 ± 44 | 0.06 ± 0.006 10^−3 cm/h | 0.5 ± 0.05 |  |  |  |  |  |  |  |  | 
CCCCOCC(C)O (stereo not drawn) [PGBE, propylene glycol butyl ether] | 17 ± 5 | 0.02 ± 0.005 10^−3 cm/h | 0.62 ± 0.03 | 7.93 ± 1.57 | 0.009 ± 0.002 10^−3 cm/h | 0.89 ± 0.13 | 44.1 ± 16.2 | 0.05 ± 0.02 10^−3 cm/h | 0.86 ± 0.23 |  |  | 
dipropylene glycol methyl ether [DPGME] |  |  |  |  |  |  |  |  |  | 106.3 ± 37.6 | 0.11 ± 0.04 10^−3 cm/h | 1.51 ± 0.48
